These results are taken from patent publication US9062095B2, “Mutant double cyclized receptor peptides inhibiting β1-adrenoceptor antibodies” (JULIUS-MAXIMILIANS-UNIVERSTITAT-WURZBURG, priority 2007, dated 2015).

Positions of bridges follow the written chain, without caps; N, C: chain ends.

One experiment has as its system anti-β1-ECII antibodies. Briefly: ELISA-competition assay: peptide preincubated with sera/IgG of immunized antibody-positive rats, linear 25AA Cys/Cys-peptide as antigen. It counts as binding, rat. To be noted: for decrease in circulating free anti-beta1-ECII antibodies: n=6 sera (FIG. 11). A digest of the protocol:
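Rat sera or IgG fractions from immunized anti-β1-ECII antibody-positive rats preincubated 12 h at 4° C (rotating) with linear or cyclic β1-ECII peptides at fold molar excess (1:1 peptide:IgG assumed). Residual binding measured by ELISA on linear 25AA Cys/Cys-peptide antigen, given as % blocked versus non-blocked reactivity.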
For orientation: ELISA stands for enzyme-linked immunosorbent assay.

Experiment [1] has as its system beta1-receptor antibodies. The experiment can be described thus: in vivo prevention study: five prophylactic peptide applications, serum antibody-titers by ELISA. To be noted: 1.0 mg/kg body weight i.v., 4-weekly, prevention protocol (FIG. 12). Also noted: species or system rat. Here is the method:
FIG. 12 is a diagram resuming the in vivo blocking capacity of in total five (prophylatic) applications of various linear and cyclic beta1-ECII-peptides, started 3 months after the first immunization (and two subsequent beta1-ECII/GST-antigen-boosts, corresponding to a prevention protocol). Serum-titers of the beta1-receptor antibodies were determined before and 18-20 h after each peptide injection (abscissa, time in months) and are given in % of the corresponding antibody-titers of immunized untreated rats (y-axis, ordinate). The injected peptides were: 25AA Cys/Cys linear peptide (black squares), […] (white squares), 18AA Cys/Cys cyclopeptide (black diamond), 18AA Cys/Ser cyclopeptide mutant (white diamonds), and the 18AA Cys/Ser linear peptide mutant (vertically hatched diamonds). […] Black circles indicate antibody-titers of untreated regularly (every 4 weeks) immunized animals serving as reference, set at 100%.
The in-vivo blocking effects of both 25AA and 18AA Cys/Ser mutant cyclopeptides (with a Gln closure site), the 18AA Ser/Cys mutant cyclopeptide, and a mutated linear 18AA Cys/Ser peptide were analyzed after intravenous (i.v.) injection of 1.0 mg/kg body weight (Bw) of each construct into freshly immunized antibody-positive rats (i.e., use of cyclo-peptides in a kind of “prevention” study), with a first cyclopeptide-application 3 months after the initial immunization (and two subsequent boost at months 2 and 3). In total, five prophylactic applications of the various constructs were given at 4-weekly intervals, always two weeks after the monthly continued antigen boost. Sera were drawn 18-20 hours after i.v. injection and assayed for reactivity by ELISA using the 3 Cys-containing linear 25AA Cys/Cys-peptide as an antigen (FIG. 12).

The subject of experiment [2] is anti-beta1-ECII antibody-secreting cells (ASC). Briefly: ELISPOT-assay with B-cells from bone marrow or spleen of prophylactically treated rats. It counts as in vivo, rat. To be noted: prophylactically treated versus untreated immunized rats, n=3-4 (FIG. 13). The procedure:
Cys/Ser, horizontally hatched columns). For the assays, ELIspot plates were coated overnight with the specific antigen (GST/beta1-ECII-FP) in 0.05 mol/1 Tris buffer, pH 9.4.; then the plates were washed 3 times and blocked with BSA for 3 hours at 37° C. Subsequently, the plates were incubated overnight at 37° C. with B-cells from either spleen or bone marrow (cultured in RPMI 1640/X-VIVO-15 medium supplemented with 10% fetal calf serum (FCS)) with 1×10^6 to 1×10^3 cells per well. After 12 hours the B-cells were discarded and the plates with the B-cell secreted IgG bound were washed several times (PBS/0.5° A) Tween) before the addition of alkaline phos-phatase conjugated secondary anti-rat IgG (0.3 μg/ml) to detect bound rat IgG. Then the plates were incubated for another 3 hours at 37° C., washed several times with PBS/0.5% Tween, and developed using LMP/BICP 5:1 (1 ml per well; “LMP” means low melting agarose, and “BICP” means 5-bromo-4-chloro-3-indolyl phosphate p-toluidine salt, a blue-colored dye) allowing for a quantification of the blue spots obtained, with each spot representing an antigen-specific IgG secreting spleen or bone-marrow cell.
This finding was confirmed by ELIspot analysis of bone marrow and spleen cell preparations of selected cyclopeptide-treated versus untreated immunized rats (n=3).

Turning to “Cyclo-Ala-Asp-Glu-Ala-Arg-Arg-Cys-Tyr-Asn-Asp-Pro-Lys-Cys-Ser-Asp-Phe-Val-Gln (cyclo(ADEARRCYNDPKCSDFVQ); disulfide 7-13; SMILES CC(C)[C@@H]1NC(=O)[C@H](Cc2ccccc2)NC(=O)[C@H](CC(=O)O)NC(=O)[C@H](CO)NC(=O)[C@@H]2CSSC[C@H](NC(=O)[C@H](CCCNC(=N)N)NC(=O)[C@H](CCCNC(=N)N)NC(=O)[C@H](C)NC(=O)[C@H](CCC(=O)O)NC(=O)[C@H](CC(=O)O)NC(=O)[C@H](C)NC(=O)[C@H](CCC(N)=O)NC1=O)C(=O)N[C@@H](Cc1ccc(O)cc1)C(=O)N[C@@H](CC(N)=O)C(=O)N[C@@H](CC(=O)O)C(=O)N1CCC[C@H]1C(=O)N[C@@H](CCCCN)C(=O)N2) [18AA Cys/Ser mutant (Gln-)cyclopeptide, disulphide bond Cys7-Cys13, ring closure Ala1-Gln18]”, the “decrease in circulating free anti-beta1-ECII antibodies” value is reported as 53% with anti-β1-ECII antibodies (8-fold molar excess of peptide), 66% in the experiment on anti-β1-ECII antibodies (20-fold molar excess of peptide) and “about 85%” with anti-β1-ECII antibodies (80-fold molar excess of peptide). Moreover, the “blocking-efficiency versus unblocked sera” value in the experiment on anti-β1-ECII antibodies (n=6 sera, incubation 12-14 h, 4° C., mean ±SEM (FIG. 27)) was determined as 60.0±8.3%. Further, in the experiment with anti-β1-ECII antibodies (n=69 sera, (Gln-)cyclopeptide mutants (FIG. 10), Cys/Ser = blocked by it alone (n=64), Ser/Cys = sera blocked by both (n=5)), the “fraction of rat sera blocked by the peptide” value is given as “About 93%”. Moreover, the “blocking efficiency (% of blocked versus non-blocked ELISA reactivity)” value with anti-β1-ECII antibodies (type1 sera (93%, n=64 of 69), FIG. 9 upper panel, ±SEM) was 68±3%. Further, the “blocking capacity (% of blocked versus non-blocked ELISA reactivity)” value in the experiment with anti-β1-ECII antibodies (type 2 sera (7%, n=5 of 69), FIG. 9 lower panel, ±SEM) came out at 50±8%. In experiment [1], the “antibody-titer decrease after 5 injections, compared with untreated immunized animals” value is 54.5±2%. For the same substance, the “number of specific anti-beta1-ECII antibody-secreting cells (ASC) in spleen and bone marrow” value in experiment [2] is given as “significant decrease”.
